Test results: patent US20230292750A1, “INSECT REPELLENT PATCHES AND TUBULAR ARTICLES” (ACHIEVE EQUINE LLC, priority 2020, published 2023)

Assays:
[1] = Adhesion Test (reservoir layer to support film); format: physicochemical; design: key: A positive (+) result for adhesion indicates the carrier cohesively failed with transfer of polymer carrier material of the reservoir layer to the support film; settings: Camie SBR carrier (CAMIE 390B); repellent 2% in dry carrier, coated on PET tape
Method: Samples of 0.75 inch (19 mm) diameter were coated in circular molds onto the PET tape to a dry thickness of approximately 0.020 inch (0.51 mm). The insect repellent was formulated at 2% within the dry carrier. Subsequent to coating, the samples were first allowed to air dry at room temperature for approximately 1 hour, then placed in a heated air convection oven at approximately […] for several hours. Upon removal, samples sat overnight before evaluation. A sharpened to a point like a flat wooden dowel (approximately 3 mm diameter) was used to separate the reservoir layer/support film coating interface. The sharpened end of the wooden dowel was applied under hand pressure at the interface in an attempt to separate the reservoir layer from the support film. A positive (+) result for adhesion indicates the carrier cohesively failed with transfer of polymer carrier material of the reservoir layer to the support film.

[2] = Tack Test (wooden dowel probe on reservoir layer); format: physicochemical; design: key: A positive (+) result for tack indicates there was no transfer of the carrier polymer of the reservoir layer to the probe (adhesive failure); settings: repellent 2% in dry carrier, coated on PET tape
Method: Samples of 0.75 inch (19 mm) diameter were coated in circular molds onto the PET tape to a dry thickness of approximately 0.020 inch (0.51 mm). The insect repellent was formulated at 2% within the dry carrier. Subsequent to coating, the samples were first allowed to air dry at room temperature for approximately 1 hour, then placed in a heated air convection oven at approximately […] for several hours. Upon removal, samples sat overnight before evaluation. As a measure of tack, the surface of the coated formulation was probed with the flat end of a wooden dowel The wooden dowel was applied under hand pressure to the surface of the reservoir layer for 1 second long in contact. A positive (+) result for tack indicates there was no transfer of the carrier polymer of the reservoir layer to the probe (adhesive failure).

[3] = Bostik EVA carrier (comparative)

Row | adhesion [1] | tack [2, 3] | tack ([2]; Camie SBR carrier (CAMIE 390B)) | SMILES
1 | + + | + | + + | CCN(CC)C(=O)c1cccc(C)c1 [Deet, N,N-diethyl-meta-toluamide]
2 | + + | + | + + | CC(C)=CCC/C(C)=C/CO [Geraniol]
